Source: patent US8247397B2, “Combinations of phosphoinositide 3-kinase inhibitor compounds and chemotherapeutic agents, and methods of use” (Genentech, Inc., priority 2007, dated 2012)

Experiments:
Oral bioavailability = details: in vivo
[1] = test system: MCF-7 (PI3K mutant) breast tumor cell xenografts; test: In vivo tumor xenograft; set-up: species or system mouse; details: after 21 days; for tumor inhibition: mB20-4.1 5 mg/kg ip twice a week 3 weeks
Protocol: (§1) The efficacy of the combinations of the invention may be measured in vivo by implanting allografts or xenografts of cancer cells in rodents and treating the tumor-bearing animals with the combinations. Variable results are to be expected depending on the cell line, the presence or absence of certain mutations in the tumor cells, the sequence of administration of Formula I or II compound and chemotherapeutic agent, dosing regimen, and other factors. Subject mice were treated with drug(s) or control (Vehicle) and monitored over several weeks or more to measure the time to tumor doubling, log cell kill, and tumor inhibition (Example 17).
(§2) Animals suitable for transgenic experiments can be obtained from standard commercial sources. Groups of female CD-1 nude mice (Charles River Laboratory) were implanted subcutaneously in the hind flank with 20 million MDA-MB-361.1 (PI3K mutant) breast cancer cells with matrigel and 0.36 mg of estrogen implants per mouse. Groups of female NMRI nu/nu mice (Janvier) were implanted with 150 mm3 fragments of MAXF 401 (Her2+/ER+/PR^+) or MAXF 1162 (Her2+/ER+/PR^+) primary breast tumors (biopsied directly from two individual breast cancer patients) with matrigel and 0.36 mg of estrogen pellets per mouse. Groups of female HRLN nu/nu (Harlan Labs) were implanted with 10 million MCF-7 (PI3K mutant) breast cancer cells with matrigel and 0.36 mg of estrogen pellets per mouse. Groups of female athymic nu/nu mice (Charles River Laboratory) were implanted with 15 million NCI-H2122 (K-Ras mutant) non-small cell lung cancer cells and matrigel per mouse. Mouse xenografts were dosed at day 1 with drug, drug combination, or vehicle according to the schedule specified for each tumor model. Docetaxel was administered intravenously, B20-1.4 was administered intraperitonealy and Formula Ia and IIa were delivered per os by oral gavage. Tumor sizes were recorded twice weekly over the course of the study. Mouse body weights were also recorded twice weekly, and the mice were observed regularly. Tumor volume was measured in two dimensions (length and width) using Ultra Cal-IV calipers (Model 54-10-111; Fred V. Fowler Co., Inc.; Newton, Mass.) and analyzed using Excel v.11.2 (Microsoft Corporation; Redmond, Wash.). Tumor inhibition graphs were plotted using KaleidaGraph, Version 3.6 (Synergy Software; Reading, Pa.). The tumor volume was calculated with formula: Tumor size (mm^3)=(longer measurement×shorter measurement^2)×0.5
(§3) The percent tumor growth inhibition (% INH) at the end of study (EOS) was calculated using formula: % INH=100×(EOS mean volume of tumors in animals given vehicle−EOS mean volume of tumors in animals given the drug)/EOS mean volume of tumors in animals given vehicle.
(§4) Tumor incidence (TI) was determined based on the number of measurable tumors remaining in each group at the end of the study. A partial response (PR) was defined as a>50% but <100% reduction in tumor volume, compared with the starting tumor volume, observed on any day of the study. A complete response (CR) was defined as a 100% reduction in tumor volume, compared with the initial tumor volume, observed on any day of the study. Data were analyzed and p-values were determined using the Dunnett's test with JMP statistical software, version 5.1.2 (SAS Institute; Cary, N.C.). Individual tumor volumes at end of study and mean tumor volume±SEM values were calculated using JMP statistical software, version 5.1.2. Body weight data were graphed based on the mean percentage of change from initial body weights±SEM.

[2] = test system: MAXF 401 primary breast tumor explant xenografts; test: In vivo tumor xenograft; set-up: species or system mouse
Protocol: as §1, §2, §3, §4

[3] = test system: MDA-MB-361.1 breast tumor cell xenografts; test: In vivo tumor xenograft; set-up: species or system mouse; details: for tumor inhibition: docetaxel 5 mg/kg iv day 1, 5, 9
Protocol: as §1, §2, §3, §4

[4] = test system: NCI-H2122 non-small cell lung cancer (NSCLC) tumor xenografts; test: In vivo tumor xenograft; set-up: species or system mouse; details: erlotinib 75 mg/kg
Protocol: as §1, §2, §3, §4

[5] = test system: MAXF 1162 primary breast tumor explant xenografts; test: In vivo tumor xenograft; set-up: species or system mouse; details: after 49 days, docetaxel 15 mg/kg iv day 0, 11, 22, 44
Protocol: as §1, §2, §3, §4

[6] = test system: pAkt (Ser473) in MDA-MB-361 cells; test: Phospho AKT induction assay; assay type: cell-based; details: synergistic cell line MDA-MB-361, EC80 dosing, 1 hr to 24 hr
Protocol: Phospho Akt (pAkt) levels can be measured by the method described in Example 18. Low CI correlates with the effect of the chemotherapeutic to induce an increase in pAkt. Levels of pAkt (Ser473) were determined using bead kits from Biosource (Carlsbad, Calif.) and the Luminex Bio-Plex system (Bio-Rad, Hercules, Calif.).
In a 6-well tissue culture plate cells were seeded at 5×10^5 cells per well overnight. Cells were treated with an EC80 of the chemotherapeutic agent. Following treatment, cells were washed once with cold PBS and lysed in 1× Cell Extraction Buffer from Biosource (Carlsbad, Calif.) supplemented with protease inhibitors (Roche, Mannheim, Germany), 1 mM PMSF, and Phosphatase Inhibitor Cocktails 1 and 2 from Sigma (St. Louis, Mo.). Determination of protein concentration was performed using the Pierce BCA Protein Assay Kit (Rockford, Ill.). Levels of pAkt (Ser^473) and total Akt were assessed using bead kits from Biosource (Carlsbad, Calif.) and the Luminex Bio-Plex system (Bio-Rad, Hercules, Calif.).

PKA = details: concentrations as high as 50 μM; cited from earlier work
PKC = details: concentrations as high as 50 μM; cited from earlier work
SGK = molecular target: T1, SGK (Homo sapiens, UniProt O00141); details: concentrations as high as 50 μM; cited from earlier work
T1 sequence (O00141 1-431): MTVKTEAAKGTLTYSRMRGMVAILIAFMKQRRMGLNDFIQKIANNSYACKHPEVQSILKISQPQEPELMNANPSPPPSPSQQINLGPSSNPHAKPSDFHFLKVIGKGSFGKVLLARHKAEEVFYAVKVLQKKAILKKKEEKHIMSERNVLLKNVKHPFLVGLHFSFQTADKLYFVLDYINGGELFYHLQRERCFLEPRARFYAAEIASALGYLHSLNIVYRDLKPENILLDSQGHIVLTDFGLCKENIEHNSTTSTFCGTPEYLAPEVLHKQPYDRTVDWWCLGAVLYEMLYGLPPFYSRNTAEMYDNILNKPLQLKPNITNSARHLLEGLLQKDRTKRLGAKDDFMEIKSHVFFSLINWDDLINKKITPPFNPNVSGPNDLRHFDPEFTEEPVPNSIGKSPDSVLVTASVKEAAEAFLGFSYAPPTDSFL

[7] = test system: small cell lung cancer (SCLC) tumors; test: Genetically engineered mouse model (GEMM) for SCLC; assay type: in vivo
From the text: (§5) […]. Cancer Res. 12(18):5312-5328; US 2007/0292948, both of which are incorporated by reference in their entirety). The surprising and unexpected results from these experiments may predict the clinical response of certain patient populations having select tumor types and mutations to such combination therapy with Formula I and II compounds and chemotherapeutic agents.

[8] = test system: K-ras-driven NSCLC tumors; test: K-ras-driven NSCLC GEMM; assay type: in vivo, mouse
From the text: as §5

[9] = test system: pancreatic adenocarcinoma (PDAC) tumors; test: Genetically engineered mouse model (GEMM) for pancreatic cancer; assay type: in vivo
From the text: as §5
A GEMM for pancreatic cancer (Aguirre et al. (2003) Genes & Development 17:3112-3126) encompasses the mutations found in a majority of patients with this disease.

pERK = details: cited from earlier work
[10] = FIG. 25, day 28, Formula IIa 100 mg/kg oral day 0-3, 11-17, 21-28, docetaxel 15 mg/kg iv day 0 and 11
[11] = FIG. 25, end of the study (day 50)
[12] = FIG. 23, after 21 days, Formula IIa 37.5 mg/kg oral daily 21 days
[13] = FIG. 23, after 21 days, groups of 10 animals
[14] = FIG. 27, Formula IIa 100 mg/kg oral
[15] = FIG. 24, day 28, NMRI nu/nu mice, Formula Ia 100 mg/kg oral day 0-4, 11-17, 21-28, docetaxel 15 mg/kg iv day 0 and 11
[16] = FIG. 24, end of the study (day 50)
[17] = FIG. 22, after 21 days, CD-1 nude mice, Formula Ia 150 mg/kg oral daily 21 days
[18] = FIG. 22, after 41 days, Formula Ia 150 mg/kg oral daily 21 days
[19] = FIG. 22, after 41 days, groups of 11 (Formula Ia), 10 (docetaxel), 9 (combination) animals
[20] = FIG. 26, Formula Ia 100 mg/kg oral

With CS(=O)(=O)N1CCN(Cc2cc3c(N4CCOCC4)nc(-c4cccc5[nH]ncc45)nc3s2)CC1 [Formula IIa, 4-(2-(1H-indazol-4-yl)-6-((4-(methylsulfonyl)piperazin-1-yl)methyl)thieno[2,3-d]pyrimidin-4-yl)morpholine] the oral bioavailability (Oral bioavailability) was “orally bioavailable”, the partial regressions ([1]; FIG. 31) was 0 and the tumor inhibition ([1]; FIG. 31, Formula IIa 100 mg/kg oral daily 21 days) was 5%. For the same molecule, the tumor inhibition [2, 10] was 82%, the tumor inhibition [2, 11] was 51% and the tumor inhibition [3, 12] was 30%. For the same molecule, the partial regressions [3, 13] was 2, the tumor inhibition ([4]; FIG. 29, end of study, Formula IIa 50 mg/kg, oral daily 14 days) was 27% and the tumor inhibition [5, 14] was 32%.

For Nc1ccn([C@@H]2O[C@H](CO)[C@@H](O)C2(F)F)c(=O)n1 [Gemcitabine, 4-amino-1-[3,3-difluoro-4-hydroxy-5-(hydroxymethyl)tetrahydrofuran-2-yl]-1H-pyrimidin-2-one], the pAkt levels [6] was “increased pAkt levels”.

In the case of O=c1[nH]c2ccccc2n1C1CCN(Cc2ccc(-c3nc4cc5[nH]cnc5cc4nc3-c3ccccc3)cc2)CC1 [Akti-1/2, 1,3-dihydro-1-(1-((4-(6-phenyl-1H-imidazo[4,5-g]quinoxalin-7-yl)phenyl)methyl)-4-piperidinyl)-2H-benzimidazol-2-one], the inhibitory effect (PKA) is listed as “does not exhibit any inhibitory effect”, the inhibitory effect (PKC) is listed as “does not exhibit any inhibitory effect” and the inhibitory effect (SGK) is listed as “does not exhibit any inhibitory effect”.

“(2R,3S)-N-carboxy-3-phenylisoserine, N-tert-butyl ester, 13-ester with 5,20-epoxy-1,2,4,7,10,13-hexahydroxytax-11-en-9-one 4-acetate 2-benzoate, trihydrate [docetaxel, reference compound]” gave a tumor inhibition [2, 15] of 95%, a tumor inhibition [2, 16] of 68% and a tumor inhibition [2, 10] of 95%. The tumor inhibition [2, 11] was 68%, the tumor inhibition [3, 17] was 78% and the tumor inhibition [3, 18] was 26%. The partial regressions [3, 19] was 2, the tumor inhibition [3, 12] was 35% and the partial regressions [3, 13] was 3. The tumor inhibition [5, 20] was 36% and the tumor inhibition [5, 14] was 36%.

In the case of CS(=O)(=O)N1CCN(Cc2cc3nc(-c4cccc5[nH]ncc45)nc(N4CCOCC4)c3s2)CC1 [Formula Ia, 4-(2-(1H-indazol-4-yl)-6-((4-(methylsulfonyl)piperazin-1-yl)methyl)thieno[3,2-d]pyrimidin-4-yl)morpholine], the survival [7] is reported as “did have an effect (significant hazard ratio) on survival”, the “tumor growth as assessed by microCT imaging” value [7] is reported as “did not show effects on tumor growth” and the survival [8] is reported as “no effect on survival”. For the same molecule, the “tumor growth as measured by microCT imaging” value [8] was “minimally affected tumor growth”, the survival [9] was “modest (not statistically significant) effect on survival” and the “tumor growth via ultrasound” value [9] was “initial decrease in tumor growth”. The oral bioavailability (Oral bioavailability) was “orally bioavailable”, the partial regressions ([1]; FIG. 30) was 0 and the tumor inhibition ([1]; FIG. 30, HRLN nu/nu mice, Formula Ia 150 mg/kg oral daily 21 days) was 36%. The tumor inhibition [2, 15] was 49%, the tumor inhibition [2, 16] was 10% and the tumor inhibition [3, 17] was 75%. The tumor inhibition [3, 18] was 66%, the partial regressions [3, 19] was 3 and the tumor inhibition ([4]; FIG. 28, after 20 days, Formula Ia 50 mg/kg, oral daily 16 days) was 17%. For the same molecule, the tumor inhibition [5, 20] was 54%.

For OCCn1cc(-c2ccc3c(c2)CC/C3=N\O)c(-c2ccncc2)n1 [HPPD, 5-(1-(2-hydroxyethyl)-3-(pyridin-4-yl)-1H-pyrazol-4-yl)-2,3-dihydro-1H-inden-1-one oxime], the IC50 (pERK) is given as 87 nM.

In the case of Cc1c(CN2CCN(C(=O)[C@H](C)O)CC2)sc2c(N3CCOCC3)nc(-c3cnc(N)nc3)nc12 [Formula Ib, (S)-1-(4-((2-(2-aminopyrimidin-5-yl)-7-methyl-4-morpholinothieno[3,2-d]pyrimidin-6-yl)methyl)piperazin-1-yl)-2-hydroxypropan-1-one], the oral bioavailability (Oral bioavailability) is reported as “orally bioavailable”.
